From ChEMBL document CHEMBL5360541 (Eur J Med Chem, 2023)

Columns and labels:
[1] = Inhibition of Influenza A virus A/Goose/Jiangsu/1306/2014 (H5N8) neuraminidase using 2(4-methylurnbellifery1)-a-u-acetyl neuraminic acid sodium salt hydrate (4-MUNANA) as Fluorogenic substrate preincubated for 10 mins followed by substrate addition by fluorescence based microplate reader analysis
[2] = Inhibition of Influenza A virus A/Goose/Guangdong/SH7/2013 (H5N1) neuraminidase using 2(4-methylurnbellifery1)-a-u-acetyl neuraminic acid sodium salt hydrate (4-MUNANA) as Fluorogenic substrate preincubated for 10 mins followed by substrate addition by fluorescence based microplate reader analysis
[3] = Cytotoxicity against dog MDCK cells assessed as reduction in cell growth incubated for 48 hrs by MTT assay; type: toxicity, cell-based, Canis lupus familiaris
Influenza A virus [4] = experiment: Anti-influenza virus activity against Influenza A virus A/WSN/67/05 (H3N2) infected in dog MDCK cells assessed as reduction in viral plaque number incubated for 48 hrs by toluidine blue staining based plaque reduction assay
Influenza A virus [5] = experiment: microbe, parasite or virus in culture; settings: A/Goose/Guangdong/SH7/2013 (H5N1), Fibroblast, 48 h
Influenza A virus [6] = experiment: microbe, parasite or virus in culture; settings: A/PuertoRico/8/1934 (H1N1), MDCK, 48 h
Influenza A virus [7] = experiment: microbe, parasite or virus in culture; settings: A/Goose/Jiangsu/1306/2014 (H5N8), Fibroblast, 48 h
[8] = Cytotoxicity against chicken embryo fibroblast cells assessed as reduction in cell growth incubated for 48 hrs by CCK-8 assay; type: toxicity, cell-based, Gallus gallus

Structure (SMILES)	IC50 [1] [nM]	IC50 [2] [nM]	further results
CCC(CC)O[C@@H]1C=C(C(=O)O)C[C@H](NCc2ccc(-c3ccccc3)cc2)[C@H]1NC(C)=O	400	310	
CCC(CC)O[C@@H]1C=C(C(=O)O)C[C@H](NCc2cc(F)c(C3=CCCC3)cc2C)[C@H]1NC(C)=O	380	150	CC50 at 48 h [3]: > 250000 nM; EC50 (Influenza A virus [4]): 35500 nM; EC50 (Influenza A virus [5]): 4780 nM; EC50 (Influenza A virus [6]): 570 nM; EC50 (Influenza A virus [7]): 690 nM; CC50 at 48 h [8]: > 200000 nM
CCC(CC)O[C@@H]1C=C(C(=O)O)C[C@H](NCc2ccc(C3=CCCC3)cc2OC)[C@H]1NC(C)=O	290	270	
CCC(CC)O[C@@H]1C=C(C(=O)O)C[C@H](NCc2ccc(C3=CCCC3)c(C)c2)[C@H]1NC(C)=O	1080	590	
CCC(CC)O[C@@H]1C=C(C(=O)O)C[C@H](NCc2c(C)cc(C3=CCCC3)cc2C)[C@H]1NC(C)=O	1140	1480	
CCC(CC)O[C@@H]1C=C(C(=O)O)C[C@H](NCc2ccc(N3CCSc4ccccc43)cc2)[C@H]1NC(C)=O	1170	2710	
CCC(CC)O[C@@H]1C=C(C(=O)O)C[C@H](NCc2cc(F)c(C3=CCCC3)cc2F)[C@H]1NC(C)=O	390	100	
CCC(CC)O[C@@H]1C=C(C(=O)O)C[C@H](NCc2ccc(C3=CCCC3)cc2C)[C@H]1NC(C)=O	610	370	
